The text below walks through data of patent US6617439B1, “C8-substituted purine nucleotide analogs” (Bar-Ilan University, priority 2000, dated 2003).

Assay [1] concerns the target T1, NTPDase (Bos taurus, UniProt O18956).
T1 sequence (O18956 1-513): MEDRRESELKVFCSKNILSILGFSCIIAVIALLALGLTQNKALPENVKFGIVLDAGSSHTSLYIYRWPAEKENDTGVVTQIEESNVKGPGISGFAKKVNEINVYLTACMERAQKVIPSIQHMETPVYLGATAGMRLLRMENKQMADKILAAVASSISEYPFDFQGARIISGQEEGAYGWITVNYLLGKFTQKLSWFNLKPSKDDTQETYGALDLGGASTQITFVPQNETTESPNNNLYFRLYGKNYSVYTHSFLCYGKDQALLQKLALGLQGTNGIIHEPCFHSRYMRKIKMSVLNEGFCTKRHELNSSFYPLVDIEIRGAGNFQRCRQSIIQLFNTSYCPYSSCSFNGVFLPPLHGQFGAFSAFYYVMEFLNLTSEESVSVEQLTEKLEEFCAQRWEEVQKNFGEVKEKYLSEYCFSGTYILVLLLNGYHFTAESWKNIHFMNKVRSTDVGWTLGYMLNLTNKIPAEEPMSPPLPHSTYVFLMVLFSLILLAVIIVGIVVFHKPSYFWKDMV
Briefly: NTPDase inhibition, ATP as substrate (Dixon plots). The assay is classed as biochemical, bovine. The method, then:
Isolation of particulate fractions. […] Briefly, bovine spleens were cut in small pieces and homogenized (15-20%) with a Polytron in Tris-saline buffer supplemented with SBTI and PMSF as protease inhibitors. After filtration with cheesecloth and centrifugation at 600 g the supernatant is centrifuged at 22,000 g for 90 min, and the resulting pellet is suspended in bicarbonate buffer and loaded on a sucrose cushion (40%) and centrifuged for two hours at 100,000 g. The fraction floating on the cushion is harvested in five volumes of bicarbonate buffer. […] NTPDase assays. Enzyme activity was routinely measured by the release of inorganic phosphorus with the malachite green colorimetric assay (61). Resistance to hydrolysis was measured at 37° C. in 1 ml of the following incubation medium: 8 mM CaCl2, 5 mM tetramisole, 50 mM Tris base, 50 mM imidazole, buffered at pH 7.6, and 100 μM of either ATP or its analogs. […] In both cases the reaction was started by the addition of 1.9 μg of the enzyme preparation and stopped after 7 min with 250 μL of the malachite green reagent. […] Reactions were performed in the same incubation buffer, as previously described and were started by the addition of non-saturating ATP concentrations. Protein concentration was determined with the Bradford microplate assay using bovine serum albumin as a standard of reference (62). […]

For assay [2], the target named is T1, NTPDase. Briefly: Resistance to hydrolysis by NTPDase (malachite green phosphate release). The assay is classed as biochemical, bovine. Further details: To reduce potential artifacts resulting from the solubilisation of NTPDase by detergents, a particulate fraction (prepared as described above) was used; from tissue; host or cells: bovine spleen particulate fraction. The following applies: 100 μM analog, 37° C., 7 min, 1.9 μg protein. The method, then: Isolation of particulate fractions. Experiments were carried out with a particulate fraction obtained from bovine spleen according to the method of Sévigny et al. (37). Briefly, bovine spleens were cut in small pieces and homogenized (15-20%) with a Polytron in Tris-saline buffer supplemented with SBTI and PMSF as protease inhibitors. After filtration with cheesecloth and centrifugation at 600 g the supernatant is centrifuged at 22,000 g for 90 min, and the resulting pellet is suspended in bicarbonate buffer and loaded on a sucrose cushion (40%) and centrifuged for two hours at 100,000 g. The fraction floating on the cushion is harvested in five volumes of bicarbonate buffer. The pellet is suspended in Tris buffer/glycerol 7.5% and kept at −20° C.
NTPDase assays. Enzyme activity was routinely measured by the release of inorganic phosphorus with the malachite green colorimetric assay (61). Resistance to hydrolysis was measured at 37° C. in 1 ml of the following incubation medium: 8 mM CaCl2, 5 mM tetramisole, 50 mM Tris base, 50 mM imidazole, buffered at pH 7.6, and 100 μM of either ATP or its analogs. […] In both cases the reaction was started by the addition of 1.9 μg of the enzyme preparation and stopped after 7 min with 250 μL of the malachite green reagent. […] Reactions were performed in the same incubation buffer, as previously described and were started by the addition of non-saturating ATP concentrations. Protein concentration was determined with the Bradford microplate assay using bovine serum albumin as a standard of reference (62).
To reduce potential artifacts resulting from the solubilisation of NTPDase by detergents, a particulate fraction (prepared as described above) was used. […] Also, possible alkaline phosphatase activity was inhibited by tetramisole added to the assays.

A further assay relates to P2X-purinoceptor. The assay can be described thus: P2X-receptor assay, endothelium-denuded mesenteric bed. On the set-up: species or system guinea pig. Particulars: for P2X-R effect: variation of perfusion pressure: bolus 0.1-1000 pmol, denuded mesenteric bed precontracted with noradrenaline. The method, then:
(§1) Surgical Procedures. Dunkin-Hartley guinea pigs (300-350 g) of either sex were sacrificed by cerival dislocation according to the Canadian Council on Aminal Care. The guinea pig mesentery was prepared as described by Berthiaume et al (63). […] To isolate the mesenteric bed from the intestine, the mesentery was perfused (2 ml/min, for 5 min) via the mesenteric artery with a Krebs solution containing heparin (100 U/ml). The mesentery was then separated by cutting close to the intestine. A resting period of 60 min was then allowed during which the guinea pig mesenteric bed was perfused (2 ml/min) with a warmed (37° C.) and gassed Krebs solution (95% O2 and 5% CO2) containing indomethacin (5 μM), as described earlier. In all the assays, perfusion pressure was increased to obtain a flow rate of 6 ml min^−1. Response of mesenteric bed, precontracted with noradrenaline (200 μM) in 0.9% saline solution, to the different drugs, was measured with a pressure transducer (Statham, model P-23AC) and recorded on a Grass physiograph (model 79D).
P2X-receptor assays. Guinea pig mesenteric bed was denuded from its endothelium layer by using 20 mM of CHAPS in PBS (63). Briefly, the CHAPS solution was infused for 45 sec, followed by a resting period of 30 min. Finally a second 45 sec infusion of 20 mM CHAPS was carried out. Blood vessels were then precontracted as earlier described. The efficiency of the endothelium removal technique was assessed by an intra-arterial bolus injection of 100 pmol of NK-1 in PBS. Reactivity of the media layer was confirmed by bolus injection of 3 nmol of NaNP (sodium nitroprussiate) in PBS. […] Variation of perfusion pressure were measured. Between each injection of 8-BuS-ATP a resting period was allowed to allow the return of pressure to baseline (i.e. precontracted pressure).

A further assay relates to P2Y-purinoceptor. The assay can be described thus: P2Y-receptor assay, intact mesenteric bed, ATP-induced vasodilation. On the set-up: species or system guinea pig. Particulars: 7 μM infusion, ATP 0.1-10000 pmol. The method, then:
as §1
P2Y-receptor assays. Intact mesenteric bed vessels were precontracted with noradrenaline (200 μM). […] A resting period between each ATP injection was allowed to return to baseline, as described above. Blood vessel reactivity was assessed by a bolus injection of 3 nmol of NaNP. Response of the endothelium layer was confirmed by injection of NK-1 (100 pmol).

The subject of a further assay is P2Y1 receptor. The following applies: cited from earlier work.
Another assay has as its system rat astrocytes. Particulars: cited from earlier work.

Entries after “also recorded” stand apart in the source; their conditions may differ.

`Nc1ncnc2c1nc(SC1CCCCCC1)n2C1OC(COP(=O)(O)OP(=O)(O)OP(=O)(O)O)C(O)C1O` (centres unmarked) [6a, 8-(Thiocycloheptyl)-adenosine 5′-triphosphate]: the “potency / affinity as NTPDase inhibitor, in words” value on NTPDase [1] is given as “good inhibitors”. Besides, the “type of NTPDase inhibition” value at NTPDase [1] (Lineweaver-Burk / Dixon representation) was “mixed type inhibitors; also recorded: mixed types of inhibition”. For the same compound, on NTPDase [2], the “hydrolysis by NTPDase / resistance to hydrolysis” value is reported as “more resistant to hydrolysis; also recorded: resistant to hydrolysis”.

For the compound `CCSc1nc2c(N)ncnc2n1[C@@H]1O[C@H](COP(=O)(O)OP(=O)(O)OP(=O)(O)O)[C@@H](O)[C@H]1O` [6c, 8-(Thioethyl)-adenosine 5′-triphosphate], the “hydrolysis by NTPDase / resistance to hydrolysis” value on NTPDase [2] is listed as “a level of hydrolysis”.

With `CCCCSc1nc2c(N)ncnc2n1C1OC(COP(=O)(O)OP(=O)(O)OP(=O)(O)O)C(O)C1O` (centres unmarked) [6e, 8-BuS-ATP], the “P2X-R effect: variation of perfusion pressure” value was “does not interact” with P2X-purinoceptor and “not able to initiate any P2X-R effect; also recorded: No variations of perfusion pressure” with P2X-purinoceptor (listed as 8-BuS-ATP). The “effect on vasodilatory response to ATP (P2Y-R)” value is “does not interact” with P2Y-purinoceptor and “unmodified; also recorded: No significant difference” in the assay with P2Y-purinoceptor (listed as 8-BuS-ATP). Moreover, the “agonism at P2Y1 receptor” value with P2Y1 receptor is given as “poor agonist”. In addition, the “effect on [Ca2+]i level” value with rat astrocytes was “no effect”.

Take `Nc1ncnc2c1nc(Br)n2[C@@H]1O[C@H](COP(=O)(O)OP(=O)(O)OP(=O)(O)O)[C@@H](O)[C@H]1O` [8-Br-ATP, reference compound]: on NTPDase [2], the “hydrolysis by NTPDase / resistance to hydrolysis” value was “a level of hydrolysis”.

For the compound `CCCCNc1nc2c(N)ncnc2n1[C@@H]1O[C@H](COP(=O)(O)OP(=O)(O)OP(=O)(O)O)[C@@H](O)[C@H]1O` [compound 7, 8-BuNH-ATP], the “hydrolysis by NTPDase / resistance to hydrolysis” value on NTPDase [2] is “a level of hydrolysis”.

Consider `CCCCOc1nc2c(N)ncnc2n1[C@@H]1O[C@H](COP(=O)(O)OP(=O)(O)OP(=O)(O)O)[C@@H](O)[C@H]1O` [compound 8, 8-BuO-ATP], for which the “hydrolysis by NTPDase / resistance to hydrolysis” value on NTPDase [2] is given as “a level of hydrolysis”.

Regarding “[Star^9,Met(O2)^11]SP [NK-1, reference compound]”, the “vascular response (vasodilation) in denuded mesentery” value in the assay on P2X-purinoceptor (100 pmol, vessels precontracted with 200 μM noradrenaline) was “significant response”.
